The source of these data is US4585773A, “Isoindolinyl-alkyl-piperazines” (Bristol-Myers Company, priority 1984, dated 1986).

Where a name gives a salt, the structure may show the parent alone. Read-outs that look alike come from different tables or passages of the source. A value given as a limit tells only on which side of the number the result lay.

In assay [1] the test system is Spontaneously Hypertensive rat. To be noted: Suzuki et al.; cited from earlier work.
The nature of assay [2]: diuretic properties compared to prazosin, acute (1-day) and chronic (5-day), conscious rats. To be noted: 3.0 mg/kg, by mouth. The assay is classed as in vivo, rat (female Sprague-Dawley). As to the method:
In this Example the compound of Example I as the hydrochloride salt containing 3/4 mol of HCl instead of 1 mol HCl, i.e. […] Studies were conducted with conscious, 150-200 g, female Sprague-Dawley rats (Charles River Labs, Wilmington, MA) using the protocol of Hanson et al., Mineral Elect. Metab., 8: 314-324 (1982). Animals were maintained in stainless steel gang cages in temperature-controlled rooms with a 12-hour light, 12-hour dark cycle and provided Purina Rodent Lab Chow, with water ad libitum. All animals were fasted 18 hours prior to acute (first-day) dosing and water was withheld during the experiment. […] Groups of ten animals (2/cage) were studied. A controlled (non-drug) group comprised of an equal number of animals was included. Test drugs were suspended in 0.25% methocel-saline (0.9% NaCl) and administered orally by stomach intubation at the doses mentioned above. The oral fluid load volume containing the respective drug dose was uniformly maintained at 25 ml/kg; controls received in methocel-saline vehicle only. Urine was collected over a 5-hour period from rats housed in metabolism cages (2 rats per cage); one specimen consisted of the pooled sample collected from each cage. The urine volume (ml) excreted by each pair of rats was measured and electrolyte (Na, K, Cl, Ca, P) concentrations were determined with an AAII Autoanalyzer (Technicon) employing established procedures. At the end of the acute (1-day) phase, each pair of rats was returned to a separate cage (2/cage) and provided both food and water. On the following three days, each animal received its respective drug methocel-saline load via a stomach intubation. On the fifth day (after an 18-hour fast) all rats were again treated and placed in metabolism cages (2 rats/cage) for a 5-hour urine collection (chronic-effect: 5-day).

Assay [3] can be described thus: conscious rat diuretic screen of Lipschitz (Table I). Type of assay: in vivo, rat (female Sprague Dawley; male Okamoto-Aoki). To be noted: female Sprague Dawley rats; for response vs control in vivo at 3 mg/kg / response vs control in vivo at 30 mg/kg: Rattus norvegicus, po. On the procedure:
With respect to diuretic utility there can be mentioned the conscious rat diuretic screen of Lipschitz, et al. (J. Pharmacol. Exp. Therap. 79, 97-110 (1943)). In this test, dose response assays of diuretic, natruiretic and kaliuretic activity are determined by oral administration of the test substance. The compounds synthesized in Examples I-XI were tested for diuretic […]. The compound of Example I was tested as its monohydrochloride 2-propanolate hydrate, i.e. as C22 […] ClN4 O4 S.HCl. 0.2(CH3)2 CHOH.0.15H2 O. Testing was carried out by the diuretic screen of Lipschitz, et al. described previously. In Table I below Volume Ratio is the ratio of total volume excreted for the test comuound compared to the total volume excreted for the control, Na^+ Ratio is the Na^+ excreted for the test compound compared to the Na^+ excreted for the control, K^+ Ratio is the K^+ excreted for the test compound compared to the K^+ excreted for the control. Female Sprague Dawley rats were used in Test Nos. 1, 2, 6, 7, 11-29. Male Okamoto-Aoki rats were used in Test Nos. 3-5 and 8-10 and testing for antihypertensive activity was carried out simultaneously on the Test Nos. 3-5 rats. In some instances, compounds were retested at the same dose level.

Assay [4] has as its system α blocking activity (norepinephrine). As to the kind of experiment: in vivo α blocking activity, norepinephrine (NE) as α-agonist (Table III). To be noted: ED50 after/before drug. More on the design: species or system rat. On the procedure:
(§1) In this example the compounds of Examples I (modified), II, III, V, VI, VII, VIII, IX and XI were tested in rats for in vivo α blocking activity according to methodology described at page 312 of Deitchman, et al., Journal of Pharmacological Methods, 3, 311-321 (1980). In this test phenylephrine (PE below) or norepinephrine (NE below) was administered as an α-agonist to the rats before and after dosing with the test drug and the average interpolated dose or PE/NE effecting a 50 mm Hg increase in mean arterial blood pressure was determined. Table III below records the results. In such Table, ED50 stands for such average interpolated dose and Average Dose Shift stands for the average ratio of ED50 after drug administration to ED50 before drug administration. The compound of Example I was tested as its monochloride 2-propanolate hydrate, i.e. as C22 H27 ClN4 O4 S.HCl 0.2(CH3)2 CHOH.0.15H2 O in Tests 1-5 and as the 3/4 mole hydrochloride, i.e. C22 H27 ClN 4 O4 S.3/4HCL in Tests 2a and 3a. The route was intravenous except in the case of the runs of Test Nos. 2a, 3, 3a, 26-29 the route was oral.

For assay [5], the system named is Spontaneously Hypertensive rat. As to the kind of experiment: antihypertensive activity, Spontaneously Hypertensive Rat (Table II). The assay is classed as in vivo. To be noted: for ΔBP 2 hours / ΔBP 4 hours / ΔHR 2 hours / ΔHR 4 hours: SHR, 30 mg/kg oral; for antihypertensive effect (in words): conclusion from Table II (SHR, and DOCA for Examples I-IV). On the procedure:
Spontaneously Hypertensive Rat Male rats weighing 300-400 g, previously conditioned to the procedure, are prewarmed in a heating chamber (30° C.) for 10-20 min. and subsequently restrained in a wire holder at that temperature. Systolic blood pressure and heart rate are measured by the tailcuff technique using a pneumatic pulse transducer and a biotachometer before, and 2, 4, and 24 hours after oral administration of vehicle (0.25% Methocel in water) or test compounds suspended in vehicle at a dose volume equivalent to 5 ml/kg. Blood pressure and heart rate data are reported as changes from zero-hour measurements with vehicle control groups run periodically to confirm that the vehicle has no effect. Testing was carried out on the compounds of Examples I-XII for antihypertensive activity. In the case of all the compounds testing was carried out on the Spontaneously Hypertensive rat as described hereinbefore. In the case of the compounds of Examples I-IV testing was also carried out on the DOCA-salt Hypertensive Rat. The compound of Example I was tested as its monochloride 2-propanolate hydrate, i.e. as C22 […] ClN4 O4 S.HCl.0.2(CH3)2 CHOH.0.15H2 O in Tests 1-5; and as the 3/4 mole hydrochloride, i.e. C22 […] ClN4 O4 S: 3/4 HCl in Tests 3a, 4a, 5a-5d. Test results are set forth in Table II below wherein SHR stands for Spontaneously Hypertensive rat, DOCA stands for DOCA-salt Hypertensive Rat, ΔBP stands for the change in systolic blood pressure in mm Hg, ΔHR stands for the change in mean heart rate in beats per minute and the times set forth are the times after dosing. A peak change in ΔBP of more than 20 is considered as indicating activity.

Assay [6] relates to α blocking activity (phenylephrine). As to the kind of experiment: in vivo α blocking activity, phenylephrine (PE) as α-agonist (Table III). More on the design: species or system rat; ED50: unit not given beside the values. To be noted: for in vivo α blocking activity (in words): conclusion from Table III; for ED50: iv. On the procedure: as §1
The subject of assay [7] is DOCA-salt Hypertensive Rat. Nature of the assay: antihypertensive activity, DOCA-salt Hypertensive Rat (Table II). Type of assay: in vivo. To be noted: DOCA; 30 mg/kg oral. As to the method:
DOCA-salt Hypertensive Rat
Male rats initially weighing 80-100 g, are made hypertensive by surgically implanting two 50 mg pellets of deoxycorticosterone acetate (DOCA) under the skin of the abdomen of each rat and providing 1% saline ad libitum. After three weeks, the 1% saline is replaced with distilled water. One week later, animals are anesthetized with methoxyflurane and a catheter advanced into the aorta via the left common corotid artery to record mean arterial blood pressure (MABP) and heart rate. The heparin-filled catheter is passed beneath the skin and exteriorized behind the head. Two days later, MABP and heart rate are determined before and four hours after oral administration of vehicle (0.25% Methocel in 0.9% saline) or test compound suspended in vehicle at a dose volume equivalent to 5 ml/kg.
Testing was carried out on the compounds of Examples I-XII for antihypertensive activity. In the case of all the compounds testing was carried out on the Spontaneously Hypertensive rat as described hereinbefore. In the case of the compounds of Examples I-IV testing was also carried out on the DOCA-salt Hypertensive Rat. The compound of Example I was tested as its monochloride 2-propanolate hydrate, i.e. as C22 H27 ClN4 O4 S.HCl.0.2(CH3)2 CHOH.0.15H2 O in Tests 1-5; and as the 3/4 mole hydrochloride, i.e. C22 H27 ClN4 O4 S: 3/4 HCl in Tests 3a, 4a, 5a-5d. Test results are set forth in Table II below wherein SHR stands for Spontaneously Hypertensive rat, DOCA stands for DOCA-salt Hypertensive Rat, ΔBP stands for the change in systolic blood pressure in mm Hg, ΔHR stands for the change in mean heart rate in beats per minute and the times set forth are the times after dosing. A peak change in ΔBP of more than 20 is considered as indicating activity.

For assay [8], the target named is α1. As to the kind of experiment: in vitro α1 binding, [3H]WB-4101 (Table IV). To be noted: [3H]WB-4101, brain tissue, 50 mM Hepes.KOH, pH 7.4; read-out: α1 Binding IC50. As to the method:
(§2) In this Example the compounds of Examples I-XI were tested in vitro for α1 and α2 binding. The compound of Example I was tested as its monochloride 2-propanolate hydrate, i.e. as C22 […] CLN4 O4 S .HCl.0.2(CH3)2 CHOH 0.15H2 O. In the testing specific brain tissues were prepared as sources of binding sites. Aliquots of the washed members are incubated with a low concentration of […]. After incubation at suitable temperature, the reaction mixture is treated to separate the membrane-bound radioligand Radioactivity is measured. Linear regression analysis of the probit value for the percent of binding occurring in the presence of varying concentrations of the compound of interest plotted against the concentration of the compound yields concentrations which inhibit 50% specific binding, the IC50. The assay buffer is 50 mM Hepes.KOH, pH 7.4. The ligand is [^3 H]WB-4101 from New England Nuclear for α1 and [^3 H]Clonidine from New England Nuclear for α2. The results are considered against phentolamine methanesulfonate (Reference) which is considered a good α-binder.

Assay [9] concerns α2. As to the kind of experiment: in vitro α2 binding, [3H]Clonidine (Table IV). On the procedure:
as §2

Where [10] appears, read: chronic administration (5-days).
[11] abbreviates: 30 mg/kg oral, read-out: K+ Ratio.
The mark [12] stands for this setting: 30 mg/kg oral, read-out: Na+ Ratio.
Where [13] appears, read: 30 mg/kg oral, read-out: Volume Ratio.

Consider `Nc1nc(N)c2nc(-c3ccccc3)c(N)nc2n1` [triamterene], for which the “effects in the spontaneously hypertensive rat (in words)” value in [1] is recorded as “favorable effects”.
For `COc1ccccc1N1CCN(CCCN2Cc3cc(Cl)c(S(N)(=O)=O)cc3C2=O)CC1` [MJ15037-1A, 6-chloro-2,3-dihydro-2-[3-[4-(2-methoxyphenyl)-1-piperazinyl]propyl]-3-oxo-1H-isoindole-5-sulfonamide], the “natriuretic/diuretic activity (in words)” value in [2] (acute treatment (1-day)) is on record as “no natriuretic/diuretic activity”. In assay [2] (setting [10]), the “chlorouresis, increase over control” value turned out to be 31% and the “natriuresis, increase over control” value stood at 32%.
On to `COc1ccccc1N1CCN(CCCCN2Cc3cc(Cl)c(S(N)(=O)=O)cc3C2=O)CC1` [Example XI, 6-Chloro-2,3-dihydro-2-[4-[4-(2-methoxyphenyl)-1-piperazinyl]butyl]-3-oxo-1H-isoindole-5-sulfonamide], for which the figures for the “Urinary Na/K (Test Compound)” value in [3] (3 mg/kg oral) and in assay [3] (30 mg/kg oral) were 3.09 and 2.62, respectively. Besides, the response vs control in vivo at 3 mg/kg in [3] (3 mg/kg oral, read-out: K+ Ratio) amounted to 111%; in [3] (3 mg/kg oral, read-out: Na+ Ratio) it was 113%; in assay [3] (3 mg/kg oral, read-out: Volume Ratio) it was 108%. Moreover, the response vs control in vivo at 30 mg/kg in [3] (setting [11]) worked out at 137%; in [3] (setting [12]), 117%; in assay [3] (setting [13]) it was 94%. For the same compound, the “Average Dose Shift” value in assay [4] (dose 0.3, intravenous) came to 5 ± 0.5; in assay [4] (dose 1.0, intravenous), 27 ± 28; in assay [4] (dose 3, intravenous), 63 ± 19. The “ΔBP 2 hours” value in assay [5] is recorded as -94 ± 10 mm Hg. Besides, the “ΔBP 4 hours” value in assay [5] is -60 ± 21 mm Hg. The “ΔHR 2 hours” value in [5] is given as -2 ± 8 beats per minute. Moreover, in assay [5], the “ΔHR 4 hours” value is listed as -22 ± 14 beats per minute. In addition, the “antihypertensive effect (in words)” value in [5] is recorded as “good antihypertensive effect without significantly affecting heart rate”. The “in vivo α blocking activity (in words)” value in assay [6] was “active as in vivo α blockers”. In assay [6], the ED50 is listed as 375.
As for `NS(=O)(=O)c1cc2c(cc1Cl)CN(CCCN1CCN(c3cccc(Cl)c3)CC1)C2=O` [Example II, 6-Chloro-2-[3-[4-(3-chlorophenyl)-1-piperazinyl]propyl]-2,3-dihydro-3-oxo-1H-isoindole-5-sulfonamide hydrochloride hemihydrate], the “Urinary Na/K (Test Compound)” value in [3] (30 mg/kg oral) turned out to be 3.41. In addition, the response vs control in vivo at 30 mg/kg in assay [3] (setting [11]) came out at 129%. Also, the response vs control in vivo at 30 mg/kg in assay [3] (setting [12]) came out at 143%. Also, in [3] (setting [13]), the response vs control in vivo at 30 mg/kg stood at 117%. Further, in assay [5], the “ΔBP 2 hours” value was -23 ± 4 mm Hg, the “ΔBP 4 hours” value was -18 ± 7 mm Hg, the “ΔHR 2 hours” value is -18 ± 10 beats per minute and the “ΔHR 4 hours” value is -4 ± 16 beats per minute. Further, the “antihypertensive effect (in words)” value in assay [5] is given as “good antihypertensive effect without significantly affecting heart rate”. In addition, the “Average Dose Shift” value in assay [6] (ED50 after/before drug, PE, dose 10, intravenous) is listed as over 200. In assay [6], the “in vivo α blocking activity (in words)” value is given as “active as in vivo α blockers” and the ED50 amounted to 34.0. In [7], the “ΔBP 4 hours” value is recorded as -33 ± 5 mm Hg and the “ΔHR 4 hours” value came to 22 ± 17 beats per minute. The IC50 in assay [8] was 7.62 nM. In assay [9], the “α2 binding activity (in words)” value was “α2 binding activity”. Further, the IC50 in assay [9] ([3H]Clonidine, brain tissue, 50 mM Hepes.KOH, pH 7.4, read-out: α2 Binding IC50) is 694 nM.

Usually IC50 stands for the concentration at which inhibition is half-maximal.
